Reference: PubChem BioAssay (NCI)
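Briefly, cells in 96-well plates were exposed to five compound concentrations for 48 h, and endpoints were estimated by linear interpolation. TGI denotes the concentration required for complete inhibition of growth.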

System: HCT-15 colon
Test: NCI tumour cell line growth inhibition, 48 h

Structure (SMILES)	TGI
CC(=O)O[C@H]1C(=O)[C@@]2(C)C(C(OC(=O)c3ccccc3)[C@]3(O)CC(OC(=O)C(O)C(NC(=O)c4ccc(C(F)(F)F)cc4)c4ccccc4)C(C)=C1C3(C)C)[C@]1(OC(C)=O)CO[C@@H]1C[C@@H]2O (stereo partly specified)	13.5 µM
COC(=O)CC1N=C(NC#N)N(CCc2c[nH]c3ccccc23)C1=O (stereo unspecified)	> 100 µM
Nc1nc(-c2ccccc2)cc(-c2ccc(OCc3ccccc3)cc2O)n1	> 100 µM
CCOC(=O)c1cn2c(n1)sc1cc(Cl)ccc12	> 100 µM
Cn1c(O)c(C(=O)NC2CCCCC2)c(=O)n(C)c1=S	25.9 µM
CCN1CCN(c2nc3ccccc3c3c2CCOc2ccccc2-3)CC1	40.1 µM
Nc1nc([O-])c2c(n1)[n+](C1OC(CO)C(O)C1O)cn2CCO (stereo unspecified)	> 100 µM
O=C(NCP(=O)(c1ccccc1)c1ccccc1)OCc1ccccc1	> 100 µM
CCOC(C)O[C@H]1C(=O)OCC1(C)C (stereo partly specified)	> 100 µM
CC(CC[C@@]1(C)C(=O)CCC2O[C@]21C)[C@H]1C[C@@H](c2ccoc2)OC1=O (stereo partly specified)	> 100 µM
O=Cc1ccccc1COC(=O)c1cc(C(=O)OCc2ccccc2C=O)c(C(=O)OCc2ccccc2C=O)cc1C(=O)OCc1ccccc1C=O	> 100 µM
CCOC1=NC(O)c2cccn2-c2sccc21 (stereo unspecified)	> 100 µM
COC(=O)c1cc2c(cc1CC(Cc1ccc3c(c1)CCCC3)C(=O)OC)CCCC2 (stereo unspecified)	> 100 µM
O=C1c2ccsc2C(=O)c2sc(CO)cc21	0.102 µM
O=C(c1cccs1)N1CCc2ccccc2C1	> 100 µM
CC1S/C(=N\N=C2/C(=O)Nc3ccc(Br)cc32)N(C2CCCCC2)C1=O (stereo unspecified)	16 µM
CN(C)CC1CCCC(CN(C)C)C1OC(=O)c1ccccc1 (stereo unspecified)	> 100 µM
CCCCC1Cc2ccccc2-c2nc3ccccc3n21 (stereo unspecified)	28.4 µM
Cc1cc(N(CCC#N)CCC#N)ccc1/C=C(\NC(=O)/C=C/c1ccccc1)C(N)=O	> 100 µM
CCC(=O)Oc1ccc2c(c1)c(=O)c1c(NCCCN(C)C)ccc3nnn2c31	15.9 µM
Cc1ccc(S(=O)(=O)N/N=C2/CCCOC2)cc1	> 100 µM
C[Si](C)(C)OC1CC(=O)OC1n1cc(F)c(=O)[nH]c1=O (stereo unspecified)	> 54 µM
CCOC(=O)C1C(=O)CC1(C)C (stereo unspecified)	> 10 µM

System: HOP-92 NSCLC
Test: NCI tumour cell line growth inhibition, 48 h

Structure (SMILES)	TGI
O=C(N/N=C\C=C\c1ccc([N+](=O)[O-])o1)C(=O)N/N=C\C=C\c1ccc([N+](=O)[O-])o1	> 100 µM
CC(=O)O[C@H]1C(=O)[C@@]2(C)C(C(OC(=O)c3ccccc3)[C@]3(O)CC(OC(=O)C(O)C(NC(=O)c4ccc(C(F)(F)F)cc4)c4ccccc4)C(C)=C1C3(C)C)[C@]1(OC(C)=O)CO[C@@H]1C[C@@H]2O (stereo partly specified)	> 37.5 µM
Nc1nc(-c2ccccc2)cc(-c2ccc(OCc3ccccc3)cc2O)n1	> 100 µM
CCOC(=O)c1cn2c(n1)sc1cc(Cl)ccc12	> 100 µM
Cn1c(O)c(C(=O)NC2CCCCC2)c(=O)n(C)c1=S	8.48 µM
CCN1CCN(c2nc3ccccc3c3c2CCOc2ccccc2-3)CC1	> 73.1 µM
Nc1nc([O-])c2c(n1)[n+](C1OC(CO)C(O)C1O)cn2CCO (stereo unspecified)	> 100 µM
O=C(NCP(=O)(c1ccccc1)c1ccccc1)OCc1ccccc1	> 100 µM
CCOC(C)O[C@H]1C(=O)OCC1(C)C (stereo partly specified)	> 100 µM
CC(CC[C@@]1(C)C(=O)CCC2O[C@]21C)[C@H]1C[C@@H](c2ccoc2)OC1=O (stereo partly specified)	86.9 µM
O=Cc1ccccc1COC(=O)c1cc(C(=O)OCc2ccccc2C=O)c(C(=O)OCc2ccccc2C=O)cc1C(=O)OCc1ccccc1C=O	> 100 µM
CCOC1=NC(O)c2cccn2-c2sccc21 (stereo unspecified)	> 100 µM
COC(=O)c1cc2c(cc1CC(Cc1ccc3c(c1)CCCC3)C(=O)OC)CCCC2 (stereo unspecified)	> 100 µM
O=C1c2ccsc2C(=O)c2sc(CO)cc21	0.994 µM
O=C(c1cccs1)N1CCc2ccccc2C1	> 100 µM
CC1S/C(=N\N=C2/C(=O)Nc3ccc(Br)cc32)N(C2CCCCC2)C1=O (stereo unspecified)	25.4 µM
CN(C)CC1CCCC(CN(C)C)C1OC(=O)c1ccccc1 (stereo unspecified)	> 100 µM
CCCCC1Cc2ccccc2-c2nc3ccccc3n21 (stereo unspecified)	30.8 µM
CCC(=O)Oc1ccc2c(c1)c(=O)c1c(NCCCN(C)C)ccc3nnn2c31	21.3 µM
Cc1ccc(S(=O)(=O)N/N=C2/CCCOC2)cc1	> 100 µM
CCOC(=O)C1C(=O)CC1(C)C (stereo unspecified)	> 10 µM

System: HT29 colon
Test: NCI tumour cell line growth inhibition, 48 h

Structure (SMILES)	TGI
O=c1cc(-c2ccc(Oc3ccccc3)cc2)[nH]c2cc3c(cc12)OCO3	> 100 µM
CCOC(=O)CC(C)C1(C(=O)OCC)CCCCC1=O (stereo unspecified)	> 100 µM
O=C(N/N=C\C=C\c1ccc([N+](=O)[O-])o1)C(=O)N/N=C\C=C\c1ccc([N+](=O)[O-])o1	> 100 µM
CC(=O)O[C@H]1C(=O)[C@@]2(C)C(C(OC(=O)c3ccccc3)[C@]3(O)CC(OC(=O)C(O)C(NC(=O)c4ccc(C(F)(F)F)cc4)c4ccccc4)C(C)=C1C3(C)C)[C@]1(OC(C)=O)CO[C@@H]1C[C@@H]2O (stereo partly specified)	0.237 µM
COC(=O)CC1N=C(NC#N)N(CCc2c[nH]c3ccccc23)C1=O (stereo unspecified)	> 100 µM
Nc1nc(-c2ccccc2)cc(-c2ccc(OCc3ccccc3)cc2O)n1	> 100 µM
CCOC(=O)c1cn2c(n1)sc1cc(Cl)ccc12	> 100 µM
CCN1CCN(c2nc3ccccc3c3c2CCOc2ccccc2-3)CC1	> 51.5 µM
Nc1nc([O-])c2c(n1)[n+](C1OC(CO)C(O)C1O)cn2CCO (stereo unspecified)	> 100 µM
O=C(NCP(=O)(c1ccccc1)c1ccccc1)OCc1ccccc1	> 100 µM
CCOC(C)O[C@H]1C(=O)OCC1(C)C (stereo partly specified)	> 100 µM
CC(CC[C@@]1(C)C(=O)CCC2O[C@]21C)[C@H]1C[C@@H](c2ccoc2)OC1=O (stereo partly specified)	> 100 µM
O=Cc1ccccc1COC(=O)c1cc(C(=O)OCc2ccccc2C=O)c(C(=O)OCc2ccccc2C=O)cc1C(=O)OCc1ccccc1C=O	> 100 µM
CCOC1=NC(O)c2cccn2-c2sccc21 (stereo unspecified)	> 100 µM
COC(=O)c1cc2c(cc1CC(Cc1ccc3c(c1)CCCC3)C(=O)OC)CCCC2 (stereo unspecified)	> 100 µM
O=C1c2ccsc2C(=O)c2sc(CO)cc21	0.444 µM
O=C(c1cccs1)N1CCc2ccccc2C1	> 100 µM
CC1S/C(=N\N=C2/C(=O)Nc3ccc(Br)cc32)N(C2CCCCC2)C1=O (stereo unspecified)	53.2 µM
CN(C)CC1CCCC(CN(C)C)C1OC(=O)c1ccccc1 (stereo unspecified)	> 100 µM
CCCCC1Cc2ccccc2-c2nc3ccccc3n21 (stereo unspecified)	29.6 µM
Cc1cc(N(CCC#N)CCC#N)ccc1/C=C(\NC(=O)/C=C/c1ccccc1)C(N)=O	> 100 µM
CCC(=O)Oc1ccc2c(c1)c(=O)c1c(NCCCN(C)C)ccc3nnn2c31	11.6 µM
Cc1ccc(S(=O)(=O)N/N=C2/CCCOC2)cc1	> 100 µM
C[Si](C)(C)OC1CC(=O)OC1n1cc(F)c(=O)[nH]c1=O (stereo unspecified)	> 100 µM
CCOC(=O)C1C(=O)CC1(C)C (stereo unspecified)	> 10 µM

System: K-562 leukemia
Test: NCI tumour cell line growth inhibition, 48 h

Structure (SMILES)	TGI
O=c1cc(-c2ccc(Oc3ccccc3)cc2)[nH]c2cc3c(cc12)OCO3	> 100 µM
CCOC(=O)CC(C)C1(C(=O)OCC)CCCCC1=O (stereo unspecified)	> 100 µM
O=C(N/N=C\C=C\c1ccc([N+](=O)[O-])o1)C(=O)N/N=C\C=C\c1ccc([N+](=O)[O-])o1	> 100 µM
CC(=O)O[C@H]1C(=O)[C@@]2(C)C(C(OC(=O)c3ccccc3)[C@]3(O)CC(OC(=O)C(O)C(NC(=O)c4ccc(C(F)(F)F)cc4)c4ccccc4)C(C)=C1C3(C)C)[C@]1(OC(C)=O)CO[C@@H]1C[C@@H]2O (stereo partly specified)	14.8 µM
COC(=O)CC1N=C(NC#N)N(CCc2c[nH]c3ccccc23)C1=O (stereo unspecified)	> 100 µM
Nc1nc(-c2ccccc2)cc(-c2ccc(OCc3ccccc3)cc2O)n1	> 100 µM
CCOC(=O)c1cn2c(n1)sc1cc(Cl)ccc12	> 100 µM
CCN1CCN(c2nc3ccccc3c3c2CCOc2ccccc2-3)CC1	> 100 µM
Nc1nc([O-])c2c(n1)[n+](C1OC(CO)C(O)C1O)cn2CCO (stereo unspecified)	> 100 µM
O=C(NCP(=O)(c1ccccc1)c1ccccc1)OCc1ccccc1	> 100 µM
CCOC(C)O[C@H]1C(=O)OCC1(C)C (stereo partly specified)	> 100 µM
CC(CC[C@@]1(C)C(=O)CCC2O[C@]21C)[C@H]1C[C@@H](c2ccoc2)OC1=O (stereo partly specified)	51 µM
O=Cc1ccccc1COC(=O)c1cc(C(=O)OCc2ccccc2C=O)c(C(=O)OCc2ccccc2C=O)cc1C(=O)OCc1ccccc1C=O	> 100 µM
CCOC1=NC(O)c2cccn2-c2sccc21 (stereo unspecified)	> 100 µM
COC(=O)c1cc2c(cc1CC(Cc1ccc3c(c1)CCCC3)C(=O)OC)CCCC2 (stereo unspecified)	> 100 µM
O=C1c2ccsc2C(=O)c2sc(CO)cc21	2.48 µM
O=C(c1cccs1)N1CCc2ccccc2C1	> 100 µM
CC1S/C(=N\N=C2/C(=O)Nc3ccc(Br)cc32)N(C2CCCCC2)C1=O (stereo unspecified)	> 100 µM
CN(C)CC1CCCC(CN(C)C)C1OC(=O)c1ccccc1 (stereo unspecified)	> 100 µM
CCCCC1Cc2ccccc2-c2nc3ccccc3n21 (stereo unspecified)	31.7 µM
Cc1cc(N(CCC#N)CCC#N)ccc1/C=C(\NC(=O)/C=C/c1ccccc1)C(N)=O	> 100 µM
CCC(=O)Oc1ccc2c(c1)c(=O)c1c(NCCCN(C)C)ccc3nnn2c31	> 100 µM
Cc1ccc(S(=O)(=O)N/N=C2/CCCOC2)cc1	> 100 µM
C[Si](C)(C)OC1CC(=O)OC1n1cc(F)c(=O)[nH]c1=O (stereo unspecified)	> 100 µM
CCOC(=O)C1C(=O)CC1(C)C (stereo unspecified)	> 10 µM

System: KM20L2 colon
Test: NCI tumour cell line growth inhibition, 48 h

Structure (SMILES)	TGI
O=c1cc(-c2ccc(Oc3ccccc3)cc2)[nH]c2cc3c(cc12)OCO3	> 100 µM
CCOC(=O)CC(C)C1(C(=O)OCC)CCCCC1=O (stereo unspecified)	> 100 µM
CC(=O)O[C@H]1C(=O)[C@@]2(C)C(C(OC(=O)c3ccccc3)[C@]3(O)CC(OC(=O)C(O)C(NC(=O)c4ccc(C(F)(F)F)cc4)c4ccccc4)C(C)=C1C3(C)C)[C@]1(OC(C)=O)CO[C@@H]1C[C@@H]2O (stereo partly specified)	0.174 µM
COC(=O)CC1N=C(NC#N)N(CCc2c[nH]c3ccccc23)C1=O (stereo unspecified)	> 100 µM
Cn1c(O)c(C(=O)NC2CCCCC2)c(=O)n(C)c1=S	23.4 µM
Nc1nc([O-])c2c(n1)[n+](C1OC(CO)C(O)C1O)cn2CCO (stereo unspecified)	> 100 µM
O=Cc1ccccc1COC(=O)c1cc(C(=O)OCc2ccccc2C=O)c(C(=O)OCc2ccccc2C=O)cc1C(=O)OCc1ccccc1C=O	> 100 µM
O=C1c2ccsc2C(=O)c2sc(CO)cc21	0.352 µM
CN(C)CC1CCCC(CN(C)C)C1OC(=O)c1ccccc1 (stereo unspecified)	> 100 µM
Cc1cc(N(CCC#N)CCC#N)ccc1/C=C(\NC(=O)/C=C/c1ccccc1)C(N)=O	> 100 µM
C[Si](C)(C)OC1CC(=O)OC1n1cc(F)c(=O)[nH]c1=O (stereo unspecified)	> 100 µM

System: MOLT-4 leukemia
Test: NCI tumour cell line growth inhibition, 48 h

Structure (SMILES)	TGI
O=c1cc(-c2ccc(Oc3ccccc3)cc2)[nH]c2cc3c(cc12)OCO3	> 100 µM
CCOC(=O)CC(C)C1(C(=O)OCC)CCCCC1=O (stereo unspecified)	> 100 µM
O=C(N/N=C\C=C\c1ccc([N+](=O)[O-])o1)C(=O)N/N=C\C=C\c1ccc([N+](=O)[O-])o1	> 100 µM
CC(=O)O[C@H]1C(=O)[C@@]2(C)C(C(OC(=O)c3ccccc3)[C@]3(O)CC(OC(=O)C(O)C(NC(=O)c4ccc(C(F)(F)F)cc4)c4ccccc4)C(C)=C1C3(C)C)[C@]1(OC(C)=O)CO[C@@H]1C[C@@H]2O (stereo partly specified)	7.39 µM
COC(=O)CC1N=C(NC#N)N(CCc2c[nH]c3ccccc23)C1=O (stereo unspecified)	> 100 µM
Nc1nc(-c2ccccc2)cc(-c2ccc(OCc3ccccc3)cc2O)n1	> 100 µM
CCOC(=O)c1cn2c(n1)sc1cc(Cl)ccc12	> 100 µM
Cn1c(O)c(C(=O)NC2CCCCC2)c(=O)n(C)c1=S	12.6 µM
CCN1CCN(c2nc3ccccc3c3c2CCOc2ccccc2-3)CC1	> 56 µM
O=C(NCP(=O)(c1ccccc1)c1ccccc1)OCc1ccccc1	> 100 µM
CCOC(C)O[C@H]1C(=O)OCC1(C)C (stereo partly specified)	> 100 µM
